{"source": "patent US20140343000A1", "about": "(priority 2011, published 2014)"}
{"system": "recombinant NL4-3 virus (Renilla luciferase in nef, Gag P373S; NLRluc) in MT-2 cells", "experiment": "whole plant or invertebrate", "format": "cell-based, HIV", "settings": "Renilla, NL43, luciferase activity in cells infected for 4-5 days with NLRluc recombinants, serial dilutions of inhibitor; class symbols (key in Table 1); read-out: EC50", "outline": "(§1)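 MT-2 cells infected 4–5 days with NL4-3 carrying Renilla luciferase in nef and Gag P373S, with serial dilutions of inhibitor present. Antiviral activity quantified by luciferase activity, using Dual Luciferase reagents premixed with lysis buffer and read immediately.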", "units": {"EC50": "nM"}}
{"molecule": "C=C(C)[C@@H]1CC[C@]2(NC(=O)NCCCn3ccnc3)CC[C@]3(C)[C@H](CC[C@@H]4[C@@]5(C)CC=C(c6ccc(C(=O)O)cc6)C(C)(C)[C@@H]5CC[C@]43C)[C@@H]12", "note": "[Example 14, 4-((1R,3aS,5aR,5bR,7aR,11aS,11bR,13aR,13bR)-3a-(3-(3-(1H-imidazol-1-yl)propyl)ureido)-5a,5b,8,8,11a-pentamethyl-1-(prop-1-en-2-yl)-2,3,3a,4,5,5a,5b,6,7,7a,8,11,11a,11b,12,13,13a,13b-octadecahydro-1H-cyclopenta[a]chrysen-9-yl)benzoic acid]", "EC50": "< 100"}
{"molecule": "C=C(C)[C@@H]1CC[C@]2(NC(=O)N3CCN(C4CCN(C)CC4)CC3)CC[C@]3(C)[C@H](CC[C@@H]4[C@@]5(C)CC=C(c6ccc(C(=O)O)cc6)C(C)(C)[C@@H]5CC[C@]43C)[C@@H]12", "note": "[Example 40, 4-((1R,3aS,5aR,5bR,7aR,11aS,11bR,13aR,13bR)-5a,5b,8,8,11a-pentamethyl-3a-(4-(1-methylpiperidin-4-yl)piperazine-1-carboxamido)-1-(prop-1-en-2-yl)-2,3,3a,4,5,5a,5b,6,7,7a,8,11,11a,11b,12,13,13a,13b-octadecahydro-1H-cyclopenta[a]chrysen-9-yl)benzoic acid]", "EC50": "< 100"}
{"molecule": "C=C(C)[C@@H]1CC[C@]2(NCC3CC3)CC[C@]3(C)[C@H](CC[C@@H]4[C@@]5(C)CC=C(c6ccc(C(=O)O)cc6)C(C)(C)[C@@H]5CC[C@]43C)[C@@H]12", "note": "[Example 152, 4-((1R,3aS,5aR,5bR,7aR,11aS,11bR,13aR,13bR)-3a-(cyclopropylmethylamino)-5a,5b,8,8,11a-pentamethyl-1-(prop-1-en-2-yl)-2,3,3a,4,5,5a,5b,6,7,7a,8,11,11a,11b,12,13,13a,13b-octadecahydro-1H-cyclopenta[a]chrysen-9-yl)benzoic acid]", "EC50": "< 100"}
{"molecule": "C=C(C)[C@@H]1CC[C@]2(NC(=O)C(=O)Nc3nncs3)CC[C@]3(C)[C@H](CC[C@@H]4[C@@]5(C)CC=C(c6ccc(C(=O)O)cc6)C(C)(C)[C@@H]5CC[C@]43C)[C@@H]12", "note": "[Example 78, 4-((1R,3aS,5aR,5bR,7aR,11aS,11bR,13aR,13bR)-3a-(2-(1,3,4-thiadiazol-2-ylamino)-2-oxoacetamido)-5a,5b,8,8,11a-pentamethyl-1-(prop-1-en-2-yl)-2,3,3a,4,5,5a,5b,6,7,7a,8,11,11a,11b,12,13,13a,13b-octadecahydro-1H-cyclopenta[a]chrysen-9-yl)benzoic acid]", "EC50": "< 100"}
{"molecule": "C=C(C)[C@@H]1CC[C@]2(NCCN3CCN(S(=O)(=O)CC)CC3)CC[C@]3(C)[C@H](CC[C@@H]4[C@@]5(C)CC=C(c6ccc(C(=O)O)cc6)C(C)(C)[C@@H]5CC[C@]43C)[C@@H]12", "note": "[Example B19, 4-((1R,3aS,5aR,5bR,7aR,11aS,11bR,13aR,13bR)-3a-((2-(4-(ethylsulfonyl)piperazin-1-yl)ethyl)amino)-5a,5b,8,8,11a-pentamethyl-1-(prop-1-en-2-yl)-2,3,3a,4,5,5a,5b,6,7,7a,8,11,11a,11b,12,13,13a,13b-octadecahydro-1H-cyclopenta[a]chrysen-9-yl)benzoic acid]", "EC50": "< 100"}
{"molecule": "C=C(C)[C@@H]1CC[C@]2(N)CC[C@]3(C)[C@H](CC[C@@H]4[C@@]5(C)CC=C(c6ccc(C(=O)O)c(F)c6)C(C)(C)[C@@H]5CC[C@]43C)[C@@H]12", "note": "[Example A1, 4-((1R,3aS,5aR,5bR,7aR,11aS,11bR,13aR,13bR)-3a-amino-5a,5b,8,8,11a-pentamethyl-1-(prop-1-en-2-yl)-2,3,3a,4,5,5a,5b,6,7,7a,8,11,11a,11b,12,13,13a,13b-octadecahydro-1H-cyclopenta[a]chrysen-9-yl)-2-fluorobenzoic acid]", "EC50": "< 100"}
{"molecule": "C=C(C)[C@@H]1CC[C@]2(NC(=O)N[C@@H](C)C(=O)O)CC[C@]3(C)[C@H](CC[C@@H]4[C@@]5(C)CC=C(c6ccc(C(=O)O)cc6)C(C)(C)[C@@H]5CC[C@]43C)[C@@H]12", "note": "[Example 17, 4-((1R,3aS,5aR,5bR,7aR,11aS,11bR,13aR,13bR)-3a-(3-((S)-1-carboxyethyl)ureido)-5a,5b,8,8,11a-pentamethyl-1-(prop-1-en-2-yl)-2,3,3a,4,5,5a,5b,6,7,7a,8,11,11a,11b,12,13,13a,13b-octadecahydro-1H-cyclopenta[a]chrysen-9-yl)benzoic acid]", "EC50": "< 100"}
{"molecule": "C=C(C)[C@@H]1CC[C@]2(NC(=O)CN3CC(F)(F)C3)CC[C@]3(C)[C@H](CC[C@@H]4[C@@]5(C)CC=C(c6ccc(C(=O)O)cc6)C(C)(C)[C@@H]5CC[C@]43C)[C@@H]12", "note": "[Example 94, 4-((1R,3aS,5aR,5bR,7aR,11aS,11bR,13aR,13bR)-3a-(2-(3,3-difluoroazetidin-1-yl)acetamido)-5a,5b,8,8,11a-pentamethyl-1-(prop-1-en-2-yl)-2,3,3a,4,5,5a,5b,6,7,7a,8,11,11a,11b,12,13,13a,13b-octadecahydro-1H-cyclopenta[a]chrysen-9-yl)benzoic acid]", "EC50": "< 100"}
{"molecule": "C=C(C)[C@@H]1CC[C@]2(NC(=O)C(=O)N(C)C)CC[C@]3(C)[C@H](CC[C@@H]4[C@@]5(C)CC=C(c6ccc(C(=O)O)cc6)C(C)(C)[C@@H]5CC[C@]43C)[C@@H]12", "note": "[Example 76, 4-((1R,3aS,5aR,5bR,7aR,11aS,11bR,13aR,13bR)-3a-(2-(dimethylamino)-2-oxoacetamido)-5a,5b,8,8,11a-pentamethyl-1-(prop-1-en-2-yl)-2,3,3a,4,5,5a,5b,6,7,7a,8,11,11a,11b,12,13,13a,13b-octadecahydro-1H-cyclopenta[a]chrysen-9-yl)benzoic acid]", "EC50": "< 100"}
{"molecule": "C=C(C)[C@@H]1CC[C@]2(NCCCN(C)C)CC[C@]3(C)[C@H](CC[C@@H]4[C@@]5(C)CC=C(c6ccc(C(=O)O)cc6)C(C)(C)[C@@H]5CC[C@]43C)[C@@H]12", "note": "[Example 169, 4-((1R,3aS,5aR,5bR,7aR,11aS,11bR,13aR,13bR)-3a-(3-(dimethylamino)propylamino)-5a,5b,8,8,11a-pentamethyl-1-(prop-1-en-2-yl)-2,3,3a,4,5,5a,5b,6,7,7a,8,11,11a,11b,12,13,13a,13b-octadecahydro-1H-cyclopenta[a]chrysen-9-yl)benzoic acid]", "EC50": "< 100"}
{"molecule": "C=C(C)[C@@H]1CC[C@]2(NC(=O)NCC(=O)N(C)C)CC[C@]3(C)[C@H](CC[C@@H]4[C@@]5(C)CC=C(c6ccc(C(=O)O)cc6)C(C)(C)[C@@H]5CC[C@]43C)[C@@H]12", "note": "[Example 31, 4-((1R,3aS,5aR,5bR,7aR,11aS,11bR,13aR,13bR)-3a-(3-(2-(dimethylamino)-2-oxoethyl)ureido)-5a,5b,8,8,11a-pentamethyl-1-(prop-1-en-2-yl)-2,3,3a,4,5,5a,5b,6,7,7a,8,11,11a,11b,12,13,13a,13b-octadecahydro-1H-cyclopenta[a]chrysen-9-yl)benzoic acid]", "EC50": "< 100"}
{"molecule": "C=C(C)[C@@H]1CC[C@]2(NC(=O)Cc3ccccn3)CC[C@]3(C)[C@H](CC[C@@H]4[C@@]5(C)CC=C(c6ccc(C(=O)O)cc6)C(C)(C)[C@@H]5CC[C@]43C)[C@@H]12", "note": "[Example 127, 4-((1R,3aS,5aR,5bR,7aR,11aS,11bR,13aR,13bR)-5a,5b,8,8,11a-pentamethyl-1-(prop-1-en-2-yl)-3a-(2-(pyridin-2-yl)acetamido)-2,3,3a,4,5,5a,5b,6,7,7a,8,11,11a,11b,12,13,13a,13b-octadecahydro-1H-cyclopenta[a]chrysen-9-yl)benzoic acid]", "EC50": "< 100"}
{"molecule": "C=C(C)[C@@H]1CC[C@]2(NC(=O)CN3CCN(CCO)CC3)CC[C@]3(C)[C@H](CC[C@@H]4[C@@]5(C)CC=C(c6ccc(C(=O)O)cc6)C(C)(C)[C@@H]5CC[C@]43C)[C@@H]12", "note": "[Example 84, 4-((1R,3aS,5aR,5bR,7aR,11aS,11bR,13aR,13bR)-3a-(2-(4-(2-hydroxyethyl)piperazin-1-yl)acetamido)-5a,5b,8,8,11a-pentamethyl-1-(prop-1-en-2-yl)-2,3,3a,4,5,5a,5b,6,7,7a,8,11,11a,11b,12,13,13a,13b-octadecahydro-1H-cyclopenta[a]chrysen-9-yl)benzoic acid]", "EC50": "< 100"}
{"molecule": "C=C(C)[C@@H]1CC[C@]2(NCCNc3ncccn3)CC[C@]3(C)[C@H](CC[C@@H]4[C@@]5(C)CC=C(c6ccc(C(=O)O)cc6)C(C)(C)[C@@H]5CC[C@]43C)[C@@H]12", "note": "[Example 199, 4-((1R,3aS,5aR,5bR,7aR,11aS,11bR,13aR,13bR)-5a,5b,8,8,11a-pentamethyl-1-(prop-1-en-2-yl)-3a-(2-(pyrimidin-2-ylamino)ethylamino)-2,3,3a,4,5,5a,5b,6,7,7a,8,11,11a,11b,12,13,13a,13b-octadecahydro-1H-cyclopenta[a]chrysen-9-yl)benzoic acid]", "EC50": "< 100"}
{"molecule": "C=C(C)[C@@H]1CC[C@]2(NC(=O)CN3CCC(F)(F)CC3)CC[C@]3(C)[C@H](CC[C@@H]4[C@@]5(C)CC=C(c6ccc(C(=O)O)cc6)C(C)(C)[C@@H]5CC[C@]43C)[C@@H]12", "note": "[Example 118, 4-((1R,3aS,5aR,5bR,7aR,11aS,11bR,13aR,13bR)-3a-(2-(4,4-difluoropiperidin-1-yl)acetamido)-5a,5b,8,8,11a-pentamethyl-1-(prop-1-en-2-yl)-2,3,3a,4,5,5a,5b,6,7,7a,8,11,11a,11b,12,13,13a,13b-octadecahydro-1H-cyclopenta[a]chrysen-9-yl)benzoic acid]", "EC50": "< 100"}
{"system": "recombinant NL4-3 virus (Renilla luciferase in nef, Gag P373S; NLRluc) in MT-2 cells", "experiment": "whole plant or invertebrate", "format": "cell-based, HIV", "settings": "Renilla, NL43, luciferase activity in cells infected for 4-5 days with NLRluc recombinants, serial dilutions of inhibitor; numeric values; read-out: EC50", "outline": "as §1", "units": {"EC50": "nM"}}
{"molecule": "C=C(C)[C@@H]1CC[C@]2(NC(=O)NCCCN3CCCC3=O)CC[C@]3(C)[C@H](CC[C@@H]4[C@@]5(C)CC=C(c6ccc(C(=O)O)cc6)C(C)(C)[C@@H]5CC[C@]43C)[C@@H]12", "note": "[Example 29, 4-((1R,3aS,5aR,5bR,7aR,11aS,11bR,13aR,13bR)-5a,5b,8,8,11a-pentamethyl-3a-(3-(3-(2-oxopyrrolidin-1-yl)propyl)ureido)-1-(prop-1-en-2-yl)-2,3,3a,4,5,5a,5b,6,7,7a,8,11,11a,11b,12,13,13a,13b-octadecahydro-1H-cyclopenta[a]chrysen-9-yl)benzoic acid]", "EC50": 10}
